Data as given in patent publication US20190084939A1, “ANALOGS OF FEXARAMINE AND METHODS OF MAKING AND USING” (Salk Institute for Biological Studies, priority 2014, published 2019).
“Also recorded” adds a separate entry of the source.

Experiments:
FXR-null mice = assay: chronic PO fexaramine in HFD fed FXR-null mice; assay type: in vivo; conditions: 100 mg/kg 5 week with HFD
Experimental: Data represent the mean±SD. Statistical analysis was performed with the Student's t test. *p<0.05, **p<0.01.
Therefore, glucose tolerance tests (GTTs) and insulin tolerance tests (ITTs) were performed to determine if glucose homeostasis was improved in fexaramine-treated DIO mice.

[1] = test system: diet-induced obesity (DIO) mice; assay: chronic PO fexaramine in diet-induced obesity (DIO) mice; assay type: in vivo; conditions: for glucose tolerance and insulin sensitivity (GTT, ITT): PO 5 weeks
Experimental: FIGS. 2A-2G are graphs illustrating the reduction of diet-induced obesity and improvement in metabolic homeostasis with fexaramine. […] Data represent the mean±STD. Statistical analysis was performed with the Student's t test (*p<0.05, **p<0.01).
The physiological effects of fexaramine in established obesity (diet-induced obesity, DIO) models were evaluated. […]

ApcMin/+ mice = assay: ApcMin/+ colon cancer mouse model; assay type: in vivo
Experimental: The farnesoid X receptor (FXR) is a bile acid activated nuclear receptor widely expressed through the body. The ability of the intestinal-specific FXR ligand fexaramine to inhibit the progression of colon cancer in mice with a heterozygote mutation for the Apc gene (ApcMin/+ mice on a C57B6 background obtained from Jackson Laboratories) was determined.
5 week old ApcMin/+ mice (13-15 males per group receiving a standard diet, a model for colorectal and intestinal cancer) were treated with vehicle (corn oil) or fexaramine (FEX, 100 mg/kg in corn oil) by oral gavage, three times a week for 23 weeks. Mice body weight and food-intake were measured daily. At the end of the treatment regimen, surviving animals were sacrificed by cervical dislocation and the entire intestinal tract was immediately removed and washed with cold phosphate-buffered saline.
At the completion of the treatment, the colons were removed, flushed with PBS, fixed as “Swiss-rolls” in 4% paraformaldehyde at 4° C. overnight, and paraffin-embedded. Sections (5 μm) were cut stepwise (200 μm) through the complete block and stained with H&E. Tumor counts were performed blinded by a trained pathologist. To determine proliferation rates, mice were injected i.p. with 100 mg/kg of BrdU 2.5 hours prior to sacrifice and paraffin sections stained using a BrdU-in situ detection kit. The extent of apoptosis was determined by TUNEL assay using the ApoAlert DNA fragmentation assay kit. BrdU- and TUNEL-positive cells were counted by an investigator blinded to the genotype. For immunohistochemistry, antigen retrieval was performed (Vector Lab H3300) and then RTU Vectastain Universal Elite ABC Kit and NovaRED or VIP substrate (all from Vector Lab) were used, following the manufacturer's instructions.
Statistical analysis were performed in collaboration with the Cancer Prevention-Biostatistics department at the University of California at San Diego Cancer Center. This is part of an ongoing collaboration and has previously been applied to the APC^Min model of colorectal cancer as well as to several other cancer models including prostate and breast cancer. The volume of polyps was calculated considering them as hemispheres (½×[…] π r^3). All other evaluations were performed in the distal tract of the small intestine because ApcMin/+ mice develop the majority of tumors in the small intestine.

human TGR5 = target: T1, human TGR5 (Homo sapiens, UniProt Q8TDU6); assay: TGR5 activation, cAMP-response element luciferase in HEK293 cells; assay type: cell-based; conditions: 24 hours after transfection
T1 construct: expressed in transfected cells; host or cells: HEK293 cells
T1 sequence (Q8TDU6 1-330): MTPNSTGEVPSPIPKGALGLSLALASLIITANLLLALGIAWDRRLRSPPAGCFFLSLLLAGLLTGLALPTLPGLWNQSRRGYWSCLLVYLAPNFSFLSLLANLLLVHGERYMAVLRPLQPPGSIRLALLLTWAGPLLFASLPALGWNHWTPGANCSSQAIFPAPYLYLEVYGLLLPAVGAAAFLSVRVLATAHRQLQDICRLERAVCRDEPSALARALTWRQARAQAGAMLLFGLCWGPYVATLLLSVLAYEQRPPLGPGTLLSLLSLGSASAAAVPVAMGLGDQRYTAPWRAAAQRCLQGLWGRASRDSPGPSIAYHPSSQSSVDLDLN
Experimental: HEK293 cells were transfected with expression vectors for cAMP-response element luciferase, β-galactosidase and human TGR5. 24 hours after transfection, cells were treated with fexaramine or INT-777 (a TGR5 agonist).

[2] = test system: serum bile acid composition; assay: serum bile acid composition by mass spectrometry in HFD mice; assay type: in vivo; conditions: 100 mg/kg/day per os 5 week
Experimental: Mice fed a HFD for 14 weeks were maintained on a HFD and treated with vehicle or fexaramine (100 mg/kg/day per os for 5 week). Serum bile acid composition was determined by mass spectrometry. N.D not determined.

COC(=O)/C=C/c1cccc(N(Cc2ccc(-c3ccc(N(C)C)cc3)cc2)C(=O)C2CCCCC2)c1 [Fexaramine, fexaramine]
Fex-induced changes in gene expression and metabolic homeostasis (FXR-null mice): abrogated | BAT expression of ERRγ, PGC-1α, PGC-1β and target genes ([1]; DIO mice): induction | PKA activity in BAT ([1]; DIO mice): increased PKA activity | accumulation of lipid vesicles in brown adipose tissue (BAT) ([1]; DIO mice): markedly reduced | activity (ambulatory counts) ([1]; DIO mice): more active than control mice | bile acid pool size ([1]; DIO mice): reducing | brown fat-like signature genes and respiratory capacity of stromal vascular fraction of inguinal adipose tissue ([1]; DIO mice): increased | circulating FGF15 ([1]; DIO mice): increase | expression of TNFα, MCP-1, IL-1α and F4/80 in visceral and brown adipose depots ([1]; DIO mice): reduced | fraction of lithocholic acid in circulating bile acids ([1]; DIO mice): increasing | fraction of taurocholic acid in circulating bile acids ([1]; DIO mice): decreasing | levels of IKK-ε and TBK1 in adipose tissue ([1]; DIO mice): reduced levels | liver lipid droplets (histology) ([1]; DIO mice): reduction in lipid droplets | mTORC1 pathway, S6K phosphorylation in gonadal WAT ([1]; DIO mice): reduced S6K phosphorylation | phosphorylation level of p38 in BAT ([1]; DIO mice): increased | ratio of unconjugated to conjugated cholic acid ([1]; DIO mice): remarkably increased | respiratory exchange ratio ([1]; DIO mice): No changes | serum alanine aminotransferase (ALT) levels ([1]; DIO mice): decreased | serum lactate levels ([1]; DIO mice): significantly decreased | glucose, insulin, leptin, cholesterol and resistin levels ([1]; DIO mice, 100 mg/kg PO 5 weeks): reduced | increase of core body temperature ([1]; DIO mice, 100 mg/kg PO 5 weeks): approximately 1.5 °C | overall fat mass (MRI) ([1]; DIO mice, 100 mg/kg PO 5 weeks): reduced overall fat mass | serum inflammatory cytokines TNFα, IL-1α, IL-1β, IL-17 and MCP-1 ([1]; DIO mice, 100 mg/kg PO 5 weeks): markedly decreased | weight gain ([1]; DIO mice, 100 mg/kg PO 5 weeks): prevented weight gain | wet weights of subcutaneous and visceral adipose depots ([1]; DIO mice, 100 mg/kg PO 5 weeks): significant reductions | prevention of weight gain over doses ([1]; DIO mice, 10, 50 or 100 mg/kg PO 5 weeks): dose-dependent manner | glucose tolerance and insulin sensitivity (GTT, ITT) ([1]; DIO mice): improved glucose clearance; also recorded: improved insulin sensitivity | glucose tolerance and insulin sensitivity (GTT, ITT) ([1]; DIO mice, listed as Fex): dose-dependent improvements | FGF15 expression in ileum ([1]; DIO mice, RNA-Seq): dramatically upregulated | OXPHOS gene changes in inguinal, gonadal and brown adipose depots ([1]; DIO mice, RNA-sequencing): selectively enhance OXPHOS activity only in BAT | HSL phosphorylation and serum levels of free fatty acids ([1]; DIO mice, chronic treatment): pronounced increase | cross-sectional area of adipocytes in visceral depots ([1]; DIO mice, chronic treatment): markedly reduced | expression of mucosal defense genes Occludin and Muc2 ([1]; DIO mice, chronic treatment): increased expression | hepatic CYP7A1 expression (mRNA and protein) ([1]; DIO mice, chronic treatment): significantly repressed | hepatic expression of CYP8B1 and CYP27A1 ([1]; DIO mice, chronic treatment): not affected | hepatic expression of gluconeogenic and lipogenic genes ([1]; DIO mice, chronic treatment): reduced | hepatic triglycerides ([1]; DIO mice, chronic treatment): marked decrease | liver FXR target genes SHP and BSEP ([1]; DIO mice, chronic treatment): not altered | serum catecholamine levels and β3-adrenergic receptor expression ([1]; DIO mice, chronic treatment): increased | weight gain at the highest dose ([1]; DIO mice, highest dose): almost completely abrogated | abundance of multi-locular, UCP1-expressing adipocytes in inguinal adipose tissue ([1]; DIO mice, immunohistochemistry): substantial increase | respiratory exchange ratio ([1]; DIO mice, listed as Fex): similar | serum lactate levels ([1]; DIO mice, listed as Fex): significantly reduced | food intake ([1]; DIO mice, versus vehicle): not attributable to difference in food intake | carbon dioxide production (VCO2) ([1]; DIO mice, weight-matched): exhaled more carbon dioxide | oxygen consumption (VO2) ([1]; DIO mice, weight-matched): consistently higher | intestinal toxicity (histology of ileum and colon) ([1]; mouse, in vivo, po): no signs of intestinal toxicity | colon cancer-induced cachexia (weight loss) (ApcMin/+ mice; 100 mg/kg oral gavage three times a week): resistant to colon cancer-induced cachexia | serum total cholesterol and triglyceride levels (ApcMin/+ mice; after 23 weeks): reduces circulating triglycerides; also recorded: reduced | tumor size in duodenum, jejunum, ileum and throughout the intestine (ApcMin/+ mice; after 23 weeks): dramatic reduction in tumor size | tumors in colon sections (ApcMin/+ mice; after 23 weeks): No tumors were observed | reduction in total tumor burden versus vehicle (ApcMin/+ mice; after 23 weeks, p 0.04): 20% | reduction in tumor burden in the ileum (ApcMin/+ mice; after 23 weeks, p 0.08): 25% | reduction in tumor burden in the jejunum (ApcMin/+ mice; after 23 weeks, p 0.08): 11.75% | tumor burden in the duodenum (ApcMin/+ mice; after 23 weeks, p 0.73): no change in tumor burden | survival at 25 weeks (ApcMin/+ mice; vehicle 20%): 80% | body weight change (ApcMin/+ mice; vehicle-treated mice lose ˜10%): maintain their weight | activation of TGR5 (human TGR5): fails to activate TGR5 | activation of TGR5 (human TGR5; listed as Fex): does not activate | Bile Acid Composition (%): CA [2]: 7.51% | Bile Acid Composition (%): CDCA [2]: 2.51% | Bile Acid Composition (%): DCA [2]: 7.67% | Bile Acid Composition (%): GLCA [2]: 0.51% | Bile Acid Composition (%): HDCA [2]: 0.36% | Bile Acid Composition (%): LCA [2]: 28.13% | Bile Acid Composition (%): T-UDCA [2]: 3.07% | Bile Acid Composition (%): T-beta MCA [2]: 29.16% | Bile Acid Composition (%): TCA [2]: 12.23% | Bile Acid Composition (%): TCDCA [2]: 1.13% | Bile Acid Composition (%): TDCA [2]: 1.02% | Bile Acid Composition (%): UDCA [2]: 0.05% | Bile Acid Composition (%): omega MCA [2]: 6.65%
